# From patent US20180371272A1, “AQUEOUS INK, INK CARTRIDGE AND IMAGE RECORDING METHOD” (CANON KABUSHIKI KAISHA, priority 2017, published 2018)
# Like-named read-outs stand apart in the source and are kept apart here.
# Columns and labels:
# Format in all cases: physicochemical
# [1] = Water solubility of solvent A at 20° C.; conditions: for Water solubility (% by mass): 20° C.
# Method: When a compound is a salt in the present invention, the salt exists while dissociating into ions in an ink, but this is expressed as “containing a salt” for convenience. An aqueous inkjet ink may be described as just an “ink.” The physical property values are values at 20° C. unless otherwise specified.
# This solvent A is a so-called poorly water-soluble compound (poorly water-soluble solvent), which is poorly dissolved in water. […] When water in the ink evaporates and the concentration increases, the solvent A cannot be completely dissolved in the ink to separate from the ink. Because the tips of non-printing nozzles are exposed to the atmosphere, water in the ink volatilizes particularly easily.
# [2] = Vapor pressure of solvent A at 20° C.
# Method: (§1) The present invention will be described in detail hereinafter by mentioning preferable embodiments. When a compound is a salt in the present invention, the salt exists while dissociating into ions in an ink, but this is expressed as “containing a salt” for convenience. An aqueous inkjet ink may be described as just an “ink.” The physical property values are values at 20° C. unless otherwise specified.
# (§2) The vapor pressure of the solvent A at 20° C. is 0.5 mmHg or less, and the surface tension at 20° C. is 30 mN/m or more. When the vapor pressure is more than 0.5 mmHg, oil films formed on ejection ports evaporate, and the effect of suppressing water evaporation becomes weak. When the surface tension is less than 30 mN/m, the intermolecular force is weak. Therefore, oil films cannot be formed. The vapor pressure of the solvent A at 20° C. can be 0.2 mmHg or less. The surface tension of the solvent A at 20° C. can be 36 mN/m or more. Specific examples of the solvent A are illustrated in Table 1.
# [3] = Surface tension of solvent A at 20° C.
# Method: as §1, §2
# [4] = Log partition coefficient of solvent A
Compound,Water solubility (% by mass) [1],Vapor pressure (mmHg) [2],Surface tension (mN/m) [3],Log partition coefficient [4],Vapor pressure (mmHg) ([2]; 20° C.),water solubility of the solvent A in the prepared ink ([1]; solvent A of ink 1)
OCc1ccccc1 [Benzyl alcohol],4.29 % by mass,0.1 mmHg,39 mN/m,1.03,–,–
CC(O)Cc1ccccc1 (stereo not shown) [1-Phenyl-2-propanol],0.58 % by mass,–,37.3 mN/m,1.71,0.1 mmHg,–
OCCc1ccccc1 [Phenethyl alcohol],2.2 % by mass,0.1 mmHg,39.7 mN/m,–,–,–
CC(O)COc1ccccc1 (stereo not shown) [1-Phenoxy-2-propanol],1.1 % by mass,0 mmHg,37.7 mN/m,1.51,–,–
OCCOc1ccccc1 [2-Phenoxyethanol],2.67 % by mass,0 mmHg,40 mN/m,1.16,–,2.7%
OCCCc1ccccc1 [3-Phenyl-1-propanol],0.568 % by mass,0 mmHg,38.9 mN/m,1.88,–,–
OCCCCc1ccccc1 [4-Phenyl-1-butanol],0.1 % by mass,0 mmHg,38.3 mN/m,2.4,–,–
